Assay results published in patent US8987217B2, “Modified saponins for the treatment of fungal infections” (The General Hospital Corporation, priority 2010, dated 2015).
Values after ≈ are worked out from the molar mass of the structure shown. “Also recorded” adds a separate entry of the source. Where two headings read alike, the source gives them in different places.

Key:
[1] = test system: C. albicans strain DAY185; assay: in vitro antifungal activity (MIC) in the co-inoculation assay, turbidity read visually; assay type: cell-based; details: for MIC in vitro: co-inoculation assay, two-fold serial dilutions, C. albicans DAY185; for in vitro growth of C. albicans: screen / dose response
Procedure: (§1) The procedure for the co-inoculation antifungal compound screen were conducted as previously described (Okoli et al., PLoS ONE, 4:e7025 (2009); Tampakakis et al., Nat Protocols, 3:1925-1931 (2008)), using the C. albicans strain DAY185 (Davis et al., Infect Immun, 68:5953-5959 (2000)) and the C. elegans glp-4;sek-1 double mutant.
The determination of the lowest concentration of the selected compounds showing in vitro antifungal activity was accomplished by following the steps detailed in the co-inoculation assay, using two-fold serial dilutions of the test compounds.

C. albicans = assay: C. elegans-C. albicans co-inoculation assay, nematode survival; assay type: in vivo; details: for maximum nematode survival / promoting C. elegans survival compared with amphotericin B: dose response; for maximum nematode survival: C. albicans-infected C. elegans; for EC50 in vivo: dose that resulted in 50% survival of C. albicans-infected nematodes; for promoting C. elegans survival compared with amphotericin B: FIG. 2A
Procedure: as §1
(§2) This assay allows simultaneous assessment of a compound's potential toxicity and the ability to promote the survival of the nematode in the presence of C. albicans, including modes of action not traditionally considered in antifungal assays such as impeding a fungal virulence factor or promoting host immune response. We performed a screen of 2,560 natural products representing a fraction of the Analyiticon Discovery compound collection (ac-discovery.com) housed at the Broad Institute of Harvard and MIT (Cambridge, Mass.). […] These natural products identified in the primary screen were retested and confirmed (FIG. 1; Table 1). […] Moreover, although the antifungal effects of some of these saponins have been reported (Sata et al., Biosci Biotechnol Biochem, 62:1904-1911 (1998); Ohtani et al., Phytochem, 33:83-86 (1993)), their efficacy against Candida spp. has not been studied.
After confirmation of these hits, dose response experiments were conducted to determine the concentration that provided maximum nematode survival. The compounds conferred a range of nematode survival from 27% (compound A6) to 93% (compounds A2, A7, A24, and A25), however, with the exception of A6, all compounds conferred a nematode survival over 65% (FIG. 1).

C. elegans = assay: toxicity to the nematode in dose response experiments; details: for toxicity to the nematode: dose response experiments, higher concentrations
Source text: as §2
Representatives of the saponins family are able to disrupt cellular membranes and the lytic activity on erythrocytes has been used as an assay for some saponins Francis et al., British Journal of Nutrition, 88:587-605 (2002)). This property is derived from the affinity of some saponins for binding cholesterol forming insoluble pores composed of the sterol and saponins (Bangham et al., Nature, 196:952-953(1962); Glauert et al., Nature, 196:953-955 (1962)). […] The dose-response experiments previously used to determine the EC50 and approximate the MIC can also indicate if the saponins maybe toxic to C. elegans and potentially to mammalian cells.

C. albicans strains = assay: MIC by standard CLSI microdilution protocol M27-A; assay type: cell-based
Procedure: Using the standard Clinical and Laboratory Standards Institute (CLSI) procedure, the in vitro MIC of these two compounds was determined on the following C. albicans strains: DAY185 (the standard strain used throughout the screen), two fluconazole-resistant strains of C. albicans, and an echinocandin-resistant strain of C. albicans (Table 2).
The minimal inhibitory concentration (MIC) was determined for strains DAY185, 98-145, 95-120 (White et al., Antimicrob Agents Chemother, 46:1704-1713 (2002)), and A15-10 (Garcia-Effron et al., Antimicrob Agents Chemother, 53:112-122 (2009)) spectrophotometrically using RPMI 1640 media (Mediatech, Inc.) following the standard CLSI microdilution protocol M27-A (National Committee for Clinical Laboratory Standards, Reference method for broth dilution susceptibility testing of yeasts. Tentative standard M27-A, Villanova, Pa. (1995)). Biofilm assays using identified compounds were conducted as previously described (Richard et al., Eukaryot Cell, 4:1493-1502 (2005)). The biofilm dry mass was determined by drying the silicone squares in a chemical hood, and weighing the resulting biofilm mass subtracting the previously weighed mass of the silicone square. Biofilm pictures were captured using a confocal laser microscope (TCS NT, Leica Microsystems). Cells were grown at 30° C., exposed to PS for 30 min, and then washed with PBS.

C. albicans isolates = assay: interaction between A16 and fluconazole (MIC); assay type: cell-based
Source text: Since compound A16 was able to facilitate uptake of PS compounds, we investigated their ability to increase uptake to the commonly used antifungal agent fluconazole. As indicated above, fluconazole and saponins have different target sites, although they both function by altering the fungal cell membrane. […] One of the molecular mechanisms responsible for increased resistance to fluconazole for isolate 98-145 is a homozygous V437I point mutation in the ERG11 gene (White et al., Antimicrob Agents Chemother, 46:1704-1713 (2002)).

C. albicans DAY185 = details: at the concentrations used, yeast cells; cited from earlier work

Compound: C/C=C(/C)C(=O)O[C@H]1CC(C)(C)C[C@H]2C3=CCC4[C@@]5(C)CC[C@H](O[C@@H]6O[C@H](C(=O)O)[C@@H](O[C@@H]7O[C@H](CO)[C@H](O)[C@H](O)[C@H]7O[C@@H]7O[C@H](CO)[C@@H](O)[C@H](O)[C@H]7O)[C@H](O)[C@H]6OC6O[C@@H](C)[C@H](O)[C@@H](O)[C@H]6O)C(C)(C)C5CC[C@@]4(C)[C@]3(C)[C@@H](OC(C)=O)[C@@H](O)[C@@]12COC(C)=O (some centres unmarked) [A25]
- MIC in vitro [1]: 28.7 µg/mL (≈ 22 µM)
- in vitro growth of C. albicans [1]: completely inhibited
- maximum nematode survival (C. albicans): 93%
- EC50 in vivo (C. albicans): 28.7 µg/mL (≈ 22 µM)

Compound: C/C=C(/C)C(=O)O[C@H]1[C@H](OC(=O)/C(C)=C\C)[C@]2(CO)[C@H](O)C[C@]3(C)C(=CCC4[C@@]5(C)CC[C@H](OC6OC(C(=O)O)C(O)C(OC7OC(C)C(O)C(OC8OC(CO)C(O)C(O)C8O)C7O)C6O)C(C)(C)C5CC[C@]43C)[C@@H]2CC1(C)C (some centres unmarked) [A7]
- MIC in vitro [1]: 3.1 µg/mL (≈ 2.72 µM)
- in vitro growth of C. albicans [1]: completely inhibited
- maximum nematode survival (C. albicans): 93%
- promoting C. elegans survival compared with amphotericin B (C. albicans): as effective as amphotericin B
- EC50 in vivo (C. albicans): 3.1 µg/mL (≈ 2.72 µM)
- toxicity to the nematode (C. elegans): decrease in nematode survival; also recorded: maybe toxic to the nematode

Compound: C[C@@H]1O[C@@H](O[C@H]2[C@H](O[C@H]3[C@H](O[C@H]4[C@H](O)[C@@H](O[C@@H]5O[C@H](CO)[C@@H](O)[C@H](O)[C@H]5O)[C@H](O[C@H]5CC[C@@]6(C)C(CC[C@]7(C)C6CC[C@]68OCC9(CCC(C)(C)CC96)[C@H](O)C[C@]87C)C5(C)C)O[C@@H]4C(=O)O)O[C@H](CO)[C@H](O)[C@@H]3O)O[C@@H](C)[C@H](O)[C@H]2O)[C@H](O)[C@H](O)[C@H]1O (some centres unmarked) [A2, Sakurasosaponin]
- MIC in vitro [1]: 27.5 µg/mL (≈ 22 µM)
- in vitro growth of C. albicans [1]: completely inhibited
- maximum nematode survival (C. albicans): 93%
- EC50 in vivo (C. albicans): 55.1 µg/mL (≈ 44 µM)

Compound: CC1CC[C@@]2(OC1)O[C@H]1CC3C4C[C@@H](O)C5C[C@@H](O[C@@H]6O[C@H](CO)[C@H](O[C@@H]7O[C@H](CO)[C@@H](O)[C@H](O[C@@H]8OC[C@@H](O[C@@H]9O[C@H](CO)[C@@H](O)[C@H](O)[C@H]9O)[C@H](O)[C@H]8O)[C@H]7O[C@@H]7O[C@H](CO)[C@@H](O)[C@H](O)[C@H]7O)[C@H](O)[C@H]6O)CC[C@]5(C)C4CC[C@]3(C)[C@H]1[C@@H]2C (some centres unmarked) [A24]
- MIC in vitro [1]: 13.3 µg/mL (≈ 11 µM)
- maximum nematode survival (C. albicans): 93%
- EC50 in vivo (C. albicans): 13.3 µg/mL (≈ 11 µM)
- toxicity to the nematode (C. elegans): decrease in nematode survival
- concentrations showing evidence of toxicity to the worms (C. elegans; in vivo): > 27 µg/mL

Compound: OC(Cn1cncn1)(Cn1cncn1)c1ccc(F)cc1F [Fluconazole]
- MIC (C. albicans strains; Candida albicans, C. albicans DAY185, read-out: MIC): 2 µg/mL (≈ 6.53 µM)
- MIC (C. albicans strains; Candida albicans, echinocandin-resistant strain A15, read-out: MIC): 2 µg/mL (≈ 6.53 µM)
- MIC (C. albicans strains; Candida albicans, fluconazole-resistant strain 95-120, read-out: MIC): 32 µg/mL (≈ 104 µM)
- MIC (C. albicans strains; Candida albicans, fluconazole-resistant strain 98-145, read-out: MIC): > 128 µg/mL
- MIC (C. albicans isolates; Candida albicans, C. albicans isolate DAY185, read-out: MIC of fluconazole alone): 2 µg/mL
- MIC of fluconazole in combination with A16 (C. albicans isolates; DAY185, subinhibitory A16 (4 μg/mL)): 1 µg/mL
- sensitivity to fluconazole treatment in the presence of A16 (C. albicans isolates; two C. albicans isolates with increased resistance to fluconazole): no increase in sensitivity

Compound: CC1CC[C@@]2(OC1)O[C@H]1CC3C4CC=C5C[C@@H](O[C@@H]6O[C@H](CO)[C@@H](O[C@@H]7O[C@@H](C)[C@H](O)[C@@H](O)[C@H]7O[C@@H]7O[C@@H](C)[C@H](O)[C@@H](O)[C@H]7O)[C@H](O)[C@H]6O)CC[C@]5(C)C4CC[C@]3(C)[C@H]1[C@@H]2C (some centres unmarked) [A20]
- MIC in vitro [1]: 4.8 µg/mL (≈ 5.52 µM)
- promoting C. elegans survival compared with amphotericin B (C. albicans): as effective as amphotericin B
- EC50 in vivo (C. albicans): 4.8 µg/mL (≈ 5.52 µM)

Compound: O=C1OC2(c3cc(I)c(O)c(I)c3Oc3c2cc(I)c(O)c3I)c2c(Cl)c(Cl)c(Cl)c(Cl)c21 [RB, Rose Bengal]
- PDI effect of photosensitizer alone (C. albicans DAY185): no statistically significant PDI effect

Compound: CC1CC[C@@]2(OC1)O[C@H]1CC3C4CC=C5C[C@@H](O[C@@H]6O[C@H](CO)[C@@H](O[C@@H]7O[C@@H](C)[C@H](O)[C@@H](O)[C@H]7O)[C@H](O)[C@H]6O[C@@H]6O[C@@H](C)[C@H](O)[C@@H](O)[C@H]6O)CC[C@]5(C)C4CC[C@]3(C)[C@H]1[C@@H]2C (some centres unmarked) [A11]
- MIC in vitro [1]: 38.9 µg/mL (≈ 44.8 µM)
- EC50 in vivo (C. albicans): 38.9 µg/mL (≈ 44.8 µM)

Compound: CC1CC[C@@]2(OC1)O[C@H]1CC3C4C[C@@H](O)C5C[C@@H](O[C@@H]6O[C@H](CO)[C@H](O[C@@H]7O[C@H](CO)[C@@H](O)[C@H](O[C@@H]8OC[C@@H](O)[C@H](O)[C@H]8O)[C@H]7O[C@@H]7O[C@H](CO)[C@@H](O)[C@H](O)[C@H]7O)[C@H](O)[C@H]6O)CC[C@]5(C)C4CC[C@]3(C)[C@H]1[C@@H]2C (some centres unmarked) [A8]
- MIC in vitro [1]: 5.8 µg/mL (≈ 5.52 µM)
- EC50 in vivo (C. albicans): 23.1 µg/mL (≈ 22 µM)

Compound: CC[C@H](C)C[C@H](C)CCCCCCCCC(=O)N[C@H]1C[C@@H](O)[C@@H](NCCN)NC(=O)[C@@H]2[C@@H](O)CCN2C(=O)[C@H]([C@H](O)CCN)NC(=O)[C@H]([C@H](O)[C@@H](O)c2ccc(O)cc2)NC(=O)[C@@H]2C[C@@H](O)CN2C(=O)[C@H]([C@@H](C)O)NC1=O [Caspofungin]
- MIC (C. albicans strains; Candida albicans, C. albicans DAY185): 2 µg/mL (≈ 1.83 µM)
- MIC (C. albicans strains; Candida albicans, echinocandin-resistant strain A15): 8 µg/mL (≈ 7.32 µM)
- MIC (C. albicans strains; Candida albicans, fluconazole-resistant strain 95-120): 1 µg/mL (≈ 0.915 µM)
- MIC (C. albicans strains; Candida albicans, fluconazole-resistant strain 98-145): 1 µg/mL (≈ 0.915 µM)

Compound: C[C@@H]1[C@H](O)[C@@H](C)/C=C/C=C/C=C/C=C/C=C/C=C/C=C/[C@H](O[C@@H]2O[C@H](C)[C@@H](O)[C@H](N)[C@@H]2O)C[C@@H]2O[C@](O)(C[C@@H](O)C[C@@H](O)[C@H](O)CC[C@@H](O)C[C@@H](O)CC(=O)O[C@H]1C)C[C@H](O)[C@H]2C(=O)O [Amphotericin B]
- MIC in vitro [1]: 1.0 µg/mL (≈ 1.08 µM)
- maximum nematode survival (C. albicans): 93%
- EC50 in vivo (C. albicans): 2.0 µg/mL (≈ 2.16 µM)
- MIC (C. albicans strains; C. albicans DAY185): 2 µg/mL (≈ 2.16 µM)
- MIC (C. albicans strains; echinocandin-resistant strain A15): 2 µg/mL (≈ 2.16 µM)
- MIC (C. albicans strains; fluconazole-resistant strain 95-120): 2 µg/mL (≈ 2.16 µM)
- MIC (C. albicans strains; fluconazole-resistant strain 98-145): 2 µg/mL (≈ 2.16 µM)

Compound: CC1(C)CC[C@]2(C(=O)O)CC[C@]3(C)C(=CCC4[C@@]5(C)CC[C@H](OC6O[C@H](CO)[C@@H](O)[C@H](O[C@@H]7O[C@H](CO)[C@@H](O)[C@H](O)[C@H]7O)[C@H]6O)C(C)(C)C5CC[C@]43C)[C@@H]2C1 (some centres unmarked) [A6, Arvensoside B]
- maximum nematode survival (C. albicans): 27%

Compound: C=Cc1c(C)c2cc3nc(c(CC(=O)O)c4[nH]c(cc5nc(cc1[nH]2)C(C)=C5CC)c(C)c4C(=O)O)[C@@H](CCC(=O)O)[C@@H]3C [ce6, chlorin(e6)]
- PDI effect of photosensitizer alone (C. albicans DAY185): no statistically significant PDI effect
